The source of these data is US20030022151A1, “Functional screening” (priority 2001, published 2003).

Assay [1] concerns Stable N2a cells expressing PS1 chimeric proteins. Kind of assay: Zeocin toxicity / cell viability assay (WST-1) in stable N2a cells expressing PS1 chimera. The format is cell-based, mouse. On the procedure: (§1) Cultured stable N2a cells expressing chimeric PS1 polypeptides were tested for cell viability in the presence of increasing concentrations of zeocin and in the presence and absence of known presenilin inhibitors in multi-well formats (FIG. 11). […] In these assays, cell viability can be assayed by commercially available cell viability ELISA kits.
(§2) Stable N2a cells expressing PS1 chimeric proteins or the parental N2a cell line were plated at a density of 6.25×10^3 cells/well into 96-well tissue culture dishes in a volume of 90 µl/well. Serial dilutions of Zeocin were added (2 mg/ml to 0.0625 mg/ml final concentration) in a volume of 10 µl/well. In some experiments the γ-secretase inhibitor, […] (purchased from Bachem) was added at a final concentration of 1 μM to one set of wells. The cells were incubated from 2 to 3 days at 37° C. Then 10 μl of Cell Proliferation Reagent WST-1 (Roche Biochemical) was added to each well. The plate was shaken for 30 sec. then placed back in the 37° C. incubator. The plate was read at 450 nm after 30 min., 1 h, 2 h and 3h in a Benchmark Plus Absorbance Plate Reader (BioRad).

In assay [2] the test system is parental N2a cell line. The following applies: parental cells; lowest zeocin concentration tested (0.2 mg/ml); FIG. 12. On the procedure:
as §1, §2

Assay [3] deals with parental PS1ΔBle cells. The note with it: parental PS1ΔBle cells expressing very low levels of PS1ΔBle.
Description: For the screen, a cell line that expresses very low levels of the PS1ΔBle protein is chosen so that the chimera is largely present as cleaved PS1 NTF and PS1ΔBleCTF. Thus, transgene-derived expression of a putative protein that facilitates increased accumulation of PS1ΔBle confers increased bleomycin (Zeocin) resistance to the target cell. […] After allowing infection/transgene expression for 2-3 days, the infected population of cells are subject to antibiotic selection in 1-2 mg/ml zeocin (5-10 times greater than the concentration normally used for selecting stable clones). At this higher concentration, only cells that accumulate several fold higher levels of PS1ΔBle relative to parental PS1ΔBle cells (that are resistant to 0.2 mg/ml), form colonies. […] If overexpression of a particular cDNA caused increased accumulation of PS1ΔBle, and therefore, an increased resistance to zeocin, in a clone, the cDNA rescued from the clone will confer increased resistance to the parental PS1ΔBle cells during the rescreening.
For assay [4], the target named is T1, PS1-Sh ble polypeptide (UniProt P17493+P49768).
T1 construct: Sh ble protein (Ble, bleomycin/zeocin resistance protein of Streptoalloteichus hindustanus, 124 aa); expressed in transfected cells
Kind of assay: Level of PS1-Sh ble polypeptide after inhibitor treatment. It is filed as cell-based. The note with it: FIG. 13 legend.

Assay [5] addresses PS1 (Homo sapiens, UniProt P49768). The following applies: previously reported (Shearman et al., 2000); cited from earlier work.
In assay [6] the target is PS2 (Homo sapiens, UniProt P49810). The following applies: previously reported (Shearman et al., 2000); cited from earlier work.

In the case of `Cc1c(N)nc([C@H](CC(N)=O)NC[C@H](N)C(N)=O)nc1C(=O)N[C@H](C(=O)N[C@H](C)[C@@H](O)[C@H](C)C(=O)N[C@H](C(=O)NCCC1=N[C@@H](c2nc(C(=O)NCCCCN=C(N)N)cs2)CS1)[C@@H](C)O)[C@@H](O[C@@H]1O[C@@H](CO)[C@@H](O)[C@H](O)[C@@H]1O[C@H]1O[C@H](CO)[C@@H](O)[C@H](OC(N)=O)[C@@H]1O)c1cnc[nH]1` [zeocin], in assay [1] (cells expressing PS1 chimera, 2 to 3 days at 37° C., WST-1 read at 450 nm, FIG. 12), the “zeocin concentrations at which cells are viable” value lay in the range of 0 to 4 mg/mL. In assay [2], the “cell viability in presence of zeocin” value is reported as “significantly less viable”. In assay [3], the “zeocin concentration to which cells are resistant” value came to 0.2 mg/mL.
With `CC(C)C[C@H](NC(=O)[C@H](Cc1ccccc1)C[C@@H](O)[C@H](Cc1ccccc1)NC(=O)OC(C)(C)C)C(=O)N[C@@H](Cc1ccccc1)C(N)=O` [L-685,458], in assay [1] (cells expressing PS1 chimera treated with inhibitor (1 μM), FIG. 13), the “zeocin concentrations at which inhibitor-treated cells are viable” value was 0 to 2 mg/mL. Further, in assay [1] (inhibitor at final concentration of 1 μM plus zeocin, FIG. 13), the “resistance to zeocin conferred by the PS1 chimera” value was “reduced the resistance to zeocin”. Besides, the “levels of the PS1-Sh ble polypeptide” value in assay [4] is recorded as “reduces the levels”. Also, the “binding to PS1” value in assay [5] is listed as “bind”. The “binding to PS2” value in assay [6] is reported as “bind”.
